From patent US7888363B2, “Viral polymerase inhibitors” (Boehringer Ingelheim International GmbH, priority 2003, dated 2011)
Blank lines part the entries; values can stand above or below the molecule they belong to.

Target: hepatitis C virus RNA dependant polymerase (NS5B) (Hepatitis C virus genotype 1b, UniProt P26663)
Test: Inhibition of NS5B RNA dependent RNA polymerase activity
Type: biochemical
Protocol: A suitable assay is described in the examples.
Inhibition of NS5B RNA Dependent RNA Polymerase Activity
The compounds of the invention were tested for inhibitory activity against the hepatitis C virus RNA dependant polymerase (NS5B), according to protocol described in WO 03/010141

Sequence of hepatitis C virus RNA dependant polymerase (NS5B) (P26663 2420-3010): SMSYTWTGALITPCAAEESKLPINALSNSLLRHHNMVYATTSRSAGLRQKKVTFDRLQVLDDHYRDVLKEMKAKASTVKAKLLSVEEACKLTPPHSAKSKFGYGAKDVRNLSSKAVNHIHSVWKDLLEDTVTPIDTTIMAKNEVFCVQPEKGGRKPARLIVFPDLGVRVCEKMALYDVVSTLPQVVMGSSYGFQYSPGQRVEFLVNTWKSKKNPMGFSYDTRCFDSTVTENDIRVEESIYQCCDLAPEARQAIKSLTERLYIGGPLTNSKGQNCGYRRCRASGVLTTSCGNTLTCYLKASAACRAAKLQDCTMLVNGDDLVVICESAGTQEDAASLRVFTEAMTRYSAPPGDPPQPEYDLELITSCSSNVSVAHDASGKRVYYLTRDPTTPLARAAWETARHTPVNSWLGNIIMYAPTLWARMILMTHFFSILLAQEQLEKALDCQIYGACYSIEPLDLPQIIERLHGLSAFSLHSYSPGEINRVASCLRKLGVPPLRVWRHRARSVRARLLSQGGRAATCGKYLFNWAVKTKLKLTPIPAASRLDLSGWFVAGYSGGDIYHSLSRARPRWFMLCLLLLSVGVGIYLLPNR

IC50 (Table 4, class ranges): 0.2 to 1 µM
Compound: CN1CCN(C(=O)Cn2c(-c3ccoc3)c(C3CCCCC3)c3ccc(C(=O)NCc4cccnc4)cc32)CC1 [Example 4017]

IC50 (Table 7, class ranges): 1 to 10 µM
Compound: O=C(NCc1ccc(F)c(C(F)(F)F)c1)c1ccc2c(c1)c(C1CCCCC1)c(-c1ccoc1)n2CC(=O)N1CCC(N2CCCC2)CC1 [Example 7042]

IC50 (Table 1, HCV NS5B polymerase): < 0.2 µM
Compound: CN(CCO)C(=O)Cn1c(-c2ccoc2)c(C2CCCCC2)c2ccc(C(=O)O)cc21 [Example 1090]

IC50 (Table 2, HCV NS5B polymerase): < 0.2 µM
Compound: COc1ccc(S(=O)(=O)NC(=O)c2ccc3c(C4CCCCC4)c(-c4ccoc4)n(CC(=O)N4CCOCC4)c3c2)cc1 [Example 2009]

IC50 (Table 3, HCV NS5B polymerase): < 0.2 µM
Compound: NC(=O)[C@]1(NC(=O)c2ccc3c(C4CCCCC4)c(-c4ccoc4)n(CC(=O)N4CCOCC4)c3c2)CCNC1 [Example 3004]

IC50 (Table 1, HCV NS5B polymerase): < 0.2 µM
Compound: Nc1cccc(-c2c(C3CCCCC3)c3ccc(C(=O)O)cc3n2CC(=O)N2CCC(N3CCCC3)CC2)n1 [Example 1050]

IC50 (Table 3, HCV NS5B polymerase): < 0.2 µM
Compound: CN1CCN(C(=O)Cn2c(-c3ccccn3)c(C3CCCCC3)c3ccc(C(=O)NC(C)(C)C(=O)Nc4ccc(/C=C/C(=O)O)cc4)cc32)CC1 [Example 3006]

IC50 (Table 4, class ranges): < 0.2 µM
Compound: CN(C)C(=O)C1(NC(=O)c2ccc3c(C4CCCCC4)c(-c4ccoc4)n(CC(=O)N4CCC(N5CCCC5)CC4)c3c2)CCCC1 [Example 4095]

IC50 (Table 7, class ranges): 1 to 10 µM
Compound: COc1ccc(CNC(=O)c2ccc3c(c2)c(C2CCCCC2)c(-c2ccoc2)n3CC(=O)N2CCC(N3CCCC3)CC2)cc1OC [Example 7028]

IC50 (Table 1, HCV NS5B polymerase): < 0.2 µM
Compound: O=C(O)c1ccc2c(C3CCCCC3)c(-c3ccoc3)n(CC(=O)N3CCC(O)CC3)c2c1 [Example 1100]

IC50 (Table 4, class ranges): 0.2 to 1 µM
Compound: O=C(NCCc1ccncc1)c1ccc2c(C3CCCCC3)c(-c3ccoc3)n(CC(=O)N3CCOCC3)c2c1 [Example 4050]

IC50 (Table 1, HCV NS5B polymerase): 0.2 to 1 µM
Compound: O=C(O)c1ccc2c(C3CCCCC3)c(-c3cc4ccccc4s3)n(CC(=O)N3CCOCC3)c2c1 [Example 1042]

IC50 (Table 7, class ranges): 1 to 10 µM
Compound: O=C(NCc1cccnc1)c1ccc2c(c1)c(C1CCCCC1)c(-c1ccoc1)n2CC(=O)N1CCC(N2CCCC2)CC1 [Example 7021]

IC50 (Table 1, HCV NS5B polymerase): < 0.2 µM
Compound: O=C(O)c1ccc2c(C3CCCCC3)c(-c3ccsc3)n(CC(=O)N3CCOCC3)c2c1 [Example 1027]

IC50 (Table 1, HCV NS5B polymerase): 1 to 10 µM
Compound: O=C(O)c1ccc2c(C3CCCCC3)c(-c3csc4ccccc34)n(CC(=O)N3CCOCC3)c2c1 [Example 1047]

IC50 (Table 4, class ranges): < 0.2 µM
Compound: NC(=O)C1(NC(=O)c2ccc3c(C4CCCCC4)c(-c4ccoc4)n(CC(=O)N4CCOCC4)c3c2)CCC1 [Example 4092]

IC50 (Table 1, HCV NS5B polymerase): 0.2 to 1 µM
Compound: O=C(O)c1ccc2c(C3CCCCC3)c(-c3ccoc3)n(CC(=O)N3CCC[C@@H]3C(=O)O)c2c1 [Example 1123]

IC50 (Table 1, HCV NS5B polymerase): 0.2 to 1 µM
Compound: O=C(O)c1ccc2c(C3CCCCC3)c(-c3ccc(Br)cn3)n(CC(=O)N3CCC(C(=O)O)CC3)c2c1 [Example 1135]

IC50 (Table 1, HCV NS5B polymerase): 0.2 to 1 µM
Compound: CCN(C(=O)Cn1c(-c2ccoc2)c(C2CCCCC2)c2ccc(C(=O)O)cc21)C1CCCCC1 [Example 1093]

IC50 (Table 7, class ranges): 1 to 10 µM
Compound: O=C(NCc1c(F)cccc1Cl)c1ccc2c(c1)c(C1CCCCC1)c(-c1ccoc1)n2CC(=O)N1CCC(N2CCCC2)CC1 [Example 7036]

IC50 (Table 7, class ranges): 1 to 10 µM
Compound: Cc1cccc(CNC(=O)c2ccc3c(c2)c(C2CCCCC2)c(-c2ccoc2)n3CC(=O)N2CCC(N3CCCC3)CC2)c1 [Example 7029]

IC50 (Table 1, HCV NS5B polymerase): < 0.2 µM
Compound: CCN(CC)CCN(C)C(=O)Cn1c(-c2ccoc2)c(C2CCCCC2)c2ccc(C(=O)O)cc21 [Example 1021]

IC50 (Table 1, HCV NS5B polymerase): 1 to 10 µM
Compound: Cc1ccccc1N(C)C(=O)Cn1c(-c2ccoc2)c(C2CCCCC2)c2ccc(C(=O)O)cc21 [Example 1115]

IC50 (Table 3, HCV NS5B polymerase): < 0.2 µM
Compound: O=C(O)C=Cc1ccc(NC(=O)C2(NC(=O)c3ccc4c(C5CCCC5)c(-c5ccccn5)n(CC(=O)N5CCCCC5)c4c3)CCC2)cc1 [Example 3011]

IC50 (Table 4, class ranges): 0.2 to 1 µM
Compound: CN1CCN(C(=O)Cn2c(-c3ccoc3)c(C3CCCCC3)c3ccc(C(=O)NCc4ccccc4)cc32)CC1 [Example 4021]

IC50 (Table 1, HCV NS5B polymerase): < 0.2 µM
Compound: O=C(Cn1c(-c2ccoc2)c(C2CCCCC2)c2ccc(C(=O)O)cc21)NNC(=O)c1ccncc1 [Example 1059]

IC50 (Table 4, class ranges): 0.2 to 1 µM
Compound: CN(C)C(=O)Cn1c(-c2ccoc2)c(C2CCCCC2)c2ccc(C(=O)NCc3ccc4c(c3)OCO4)cc21 [Example 4052]

IC50 (Table 1, HCV NS5B polymerase): 0.2 to 1 µM
Compound: COCCN(CCOC)C(=O)Cn1c(-c2ccco2)c(C2CCCCC2)c2ccc(C(=O)O)cc21 [Example 1014]

IC50 (Table 5, HCV NS5B polymerase): 1 to 10 µM
Compound: CC(C(=O)N(C)C)n1c(-c2ccoc2)c(C2CCCCC2)c2ccc(C(=O)O)cc21 (stereo not drawn) [Example 5009]

IC50 (Table 7, class ranges): 1 to 10 µM
Compound: NS(=O)(=O)c1ccc(CCNC(=O)c2ccc3c(c2)c(C2CCCCC2)c(-c2ccoc2)n3CC(=O)N2CCC(N3CCCC3)CC2)cc1 [Example 7032]

IC50 (Table 7, class ranges): 1 to 10 µM
Compound: CN(C)C(=O)Cn1c(-c2ccoc2)c(C2CCCCC2)c2cc(O)c(C(=O)O)cc21 [Example 7009]

IC50 (Table 4, class ranges): 0.2 to 1 µM
Compound: Cc1nc(C2(NC(=O)c3ccc4c(C5CCCCC5)c(-c5ccoc5)n(CC(=O)N5CCOCC5)c4c3)CCC2)cs1 [Example 4098]

IC50 (Table 2, HCV NS5B polymerase): < 0.2 µM
Compound: O=C(NS(=O)(=O)c1ccc([N+](=O)[O-])cc1)c1ccc2c(C3CCCCC3)c(-c3ccoc3)n(CC(=O)N3CCOCC3)c2c1 [Example 2018]
